According to patent publication US8258114B2, “Modulation of glucose-6-phosphatase translocase expression” (Isis Pharmaceuticals, Inc., priority 2004, dated 2012):
Oligonucleotides are written 5' to 3', each unit as a sugar letter and its base; * is a phosphorothioate linkage, no mark a phosphodiester; rarer units and linkages stand in square brackets, end groups in braces. Plain capitals give the bases only. e = 2'-O-(2-methoxyethyl) (MOE); [5mC] = 5-methylcytosine; d = 2'-deoxy (DNA)

system: human glucose-6-phosphatase translocase mRNA; test: Antisense inhibition of human glucose-6-phosphatase translocase mRNA in HepG2 cells (Table 11); assay type: cell-based; parameters: concentration or dose not given beside the values; conditions: LIPOFECTIN, mRNA by real-time PCR
In short: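 HepG2 cells at 65-75% confluency transfected with 2′-MOE gapmer oligonucleotides using LIPOFECTIN (2.5 or 3 μg/mL per 100 nM oligo) for 4-7 h and harvested 16-24 h later. Target mRNA measured by RT real-time PCR and normalized to GAPDH or RiboGreen total RNA.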

| Sequence | % Inhib [%] |
| --- | --- |
| AGGGTGCTCTCCTCCTTCAA (eA*eG*eG*eG*eT*dG*d[5mC]*dT*d[5mC]*dT*d[5mC]*d[5mC]*dT*d[5mC]*d[5mC]*eT*eT*e[5mC]*eA*eA; antisense) [ISIS 194855] | 66 |
| CCACCTATATCCAACTGCGC (e[5mC]*e[5mC]*eA*e[5mC]*e[5mC]*dT*dA*dT*dA*dT*d[5mC]*d[5mC]*dA*dA*d[5mC]*eT*eG*e[5mC]*eG*e[5mC]; antisense) [ISIS 194839] | 75 |
| CCCACTGACAAACTTGCTGA (e[5mC]*e[5mC]*e[5mC]*eA*e[5mC]*dT*dG*dA*d[5mC]*dA*dA*dA*d[5mC]*dT*dT*eG*e[5mC]*eT*eG*eA; antisense) [ISIS 194850] | 38 |

system: human glucose-6-phosphatase translocase mRNA; test: Antisense inhibition of human glucose-6-phosphatase translocase mRNA in T-24 cells, real-time PCR (Table 4); assay type: cell-based; conditions: 100 nM oligonucleotide, LIPOFECTIN, mRNA by real-time PCR
Protocol: The transitional cell bladder carcinoma cell line T-24 was obtained from the American Type Culture Collection (ATCC) (Manassas, Va.). T-24 cells were routinely cultured in complete McCoy's 5A basal media (Invitrogen Life Technologies, Carlsbad, Calif.) supplemented with 10% fetal bovine serum (Invitrogen Life Technologies, Carlsbad, Calif.). Cells were routinely passaged by trypsinization and dilution when they reached approximately 90% confluence. Cells were seeded into 96-well plates (Falcon-Primaria #3872) at a density of approximately 4000-6000 cells/well for use in oligomeric compound transfection experiments. When cells reached 65-75% confluency, they were treated with oligonucleotide. […] This transfection mixture was incubated at room temperature for approximately 0.5 hours. For cells grown in 96-well plates, wells were washed once with 100 μL OPTI-MEMTM-1 and then treated with 130 μL of the transfection mixture. Cells grown in 24-well plates or other standard tissue culture plates are treated similarly, using appropriate volumes of medium and oligonucleotide. Cells are treated and data are obtained in duplicate or triplicate. After approximately 4-7 hours of treatment at 37° C., the medium containing the transfection mixture was replaced with fresh culture medium. Cells were harvested 16-24 hours after oligonucleotide treatment. […] Prior to quantitative PCR analysis, primer-probe sets specific to the target gene being measured were evaluated for their ability to be “multiplexed” with a GAPDH amplification reaction. After isolation the RNA is subjected to sequential reverse transcriptase (RT) reaction and real-time PCR, both of which are performed in the same well. RT and PCR reagents were obtained from Invitrogen Life Technologies (Carlsbad, Calif.). […] The RT reaction was carried out by incubation for 30 minutes at 48° C. Following a 10 minute incubation at 95° C. to activate the PLATINUM® Taq, 40 cycles of a two-step PCR protocol were carried out: 95° C. for 15 seconds (denaturation) followed by 60° C. for 1.5 minutes (annealing/extension). Gene target quantities obtained by RT, real-time PCR were normalized using either the expression level of GAPDH, a gene whose expression is constant, or by quantifying total RNA using RiboGreenTM (Molecular Probes, Inc. Eugene, Oreg.). GAPDH expression was quantified by RT, real-time PCR, by being run simultaneously with the target, multiplexing, or separately. Total RNA was quantified using RiboGreenTM RNA quantification reagent (Molecular Probes, Inc. Eugene, Oreg.). A series of oligomeric compounds was designed to target different regions of human glucose-6-phosphatase translocase, using published sequences cited in Table 1. All compounds in Table 4 are chimeric oligonucleotides (“gapmers”) 20 nucleotides in length, composed of a central “gap” region consisting of 10 2'-deoxynucleotides, which is flanked on both sides ([NT]) by five-nucleotide “wings”. The wings are composed of 2'-O-(2-methoxyethyl) nucleotides, also known as 2'-MOE nucleotides. The internucleoside (backbone) linkages are phosphorothioate throughout the oligonucleotide. All cytidine residues are 5-methylcytidines. The compounds were analyzed for their effect on gene target mRNA levels by quantitative real-time PCR as described in other examples herein, using the following primer-probe set designed to hybridize to human glucose-6-phosphatase translocase: Forward primer: [NT] (incorporated herein as SEQ ID NO: 24) Reverse primer: [NT] (incorporated herein as SEQ ID NO: 25) And the PCR probe was: […] (incorporated herein as SEQ ID NO: 26), where FAM is the fluorescent dye and TAMRA is the quencher dye. Data are from experiments in which T-24 cells were treated with 100 nM of the antisense oligonucleotides of the present invention using LIPOFECTINTM. A reduction in expression is expressed as percent inhibition in Table 4. If present, “N.D.” indicates “not determined”. The control oligomeric compound used was SEQ ID NO: 11. […]

| Sequence | % Inhib [%] |
| --- | --- |
| AGGCAAAGAATATGTTGACC (eA*eG*eG*e[5mC]*eA*dA*dA*dG*dA*dA*dT*dA*dT*dG*dT*eT*eG*eA*e[5mC]*e[5mC]; antisense) [ISIS 194830] | 68 |
| AGGGTGCTCTCCTCCTTCAA (eA*eG*eG*eG*eT*dG*d[5mC]*dT*d[5mC]*dT*d[5mC]*d[5mC]*dT*d[5mC]*d[5mC]*eT*eT*e[5mC]*eA*eA; antisense) [ISIS 194855] | 57 |
| ATGGCGAGGGTTCCCGTAGT (eA*eT*eG*eG*e[5mC]*dG*dA*dG*dG*dG*dT*dT*d[5mC]*d[5mC]*d[5mC]*eG*eT*eA*eG*eT; antisense) [ISIS 194831] | 54 |
| CACCTATATCCAACTGCGCC (e[5mC]*eA*e[5mC]*e[5mC]*eT*dA*dT*dA*dT*d[5mC]*d[5mC]*dA*dA*d[5mC]*dT*eG*e[5mC]*eG*e[5mC]*e[5mC]; antisense) [ISIS 194837] | 81 |
| CAGGGCACTCATGTAGGAGC (e[5mC]*eA*eG*eG*eG*d[5mC]*dA*d[5mC]*dT*d[5mC]*dA*dT*dG*dT*dA*eG*eG*eA*eG*e[5mC]; antisense) [ISIS 194840] | 51 |
| CAGTTCCCAGATCTGCTGAG (e[5mC]*eA*eG*eT*eT*d[5mC]*d[5mC]*d[5mC]*dA*dG*dA*dT*d[5mC]*dT*dG*e[5mC]*eT*eG*eA*eG; antisense) [ISIS 194851] | 73 |
| CAGTTCCTGCTTGCCGCTCT (e[5mC]*eA*eG*eT*eT*d[5mC]*d[5mC]*dT*dG*d[5mC]*dT*dT*dG*d[5mC]*d[5mC]*eG*e[5mC]*eT*e[5mC]*eT; antisense) [ISIS 194856] | 56 |
| CATTAGTGCCCTGCAGCTGC (e[5mC]*eA*eT*eT*eA*dG*dT*dG*d[5mC]*d[5mC]*d[5mC]*dT*dG*d[5mC]*dA*eG*e[5mC]*eT*eG*e[5mC]; antisense) [ISIS 194828] | 73 |
| CCACCTATATCCAACTGCGC (e[5mC]*e[5mC]*eA*e[5mC]*e[5mC]*dT*dA*dT*dA*dT*d[5mC]*d[5mC]*dA*dA*d[5mC]*eT*eG*e[5mC]*eG*e[5mC]; antisense) [ISIS 194839] | 83 |
| CCAGGCAGGCCCCTCCTTTT (e[5mC]*e[5mC]*eA*eG*eG*d[5mC]*dA*dG*dG*d[5mC]*d[5mC]*d[5mC]*d[5mC]*dT*d[5mC]*e[5mC]*eT*eT*eT*eT; antisense) [ISIS 194858] | 71 |
| CCCACTGACAAACTTGCTGA (e[5mC]*e[5mC]*e[5mC]*eA*e[5mC]*dT*dG*dA*d[5mC]*dA*dA*dA*d[5mC]*dT*dT*eG*e[5mC]*eT*eG*eA; antisense) [ISIS 194850] | 88 |
| CCTGCTTGCCGCTCTCACAG (e[5mC]*e[5mC]*eT*eG*e[5mC]*dT*dT*dG*d[5mC]*d[5mC]*dG*d[5mC]*dT*d[5mC]*dT*e[5mC]*eA*e[5mC]*eA*eG; antisense) [ISIS 194844] | 73 |
| CTGTAGCCCCCAAACATGGC (e[5mC]*eT*eG*eT*eA*dG*d[5mC]*d[5mC]*d[5mC]*d[5mC]*d[5mC]*dA*dA*dA*d[5mC]*eA*eT*eG*eG*e[5mC]; antisense) [ISIS 194835] | 59 |
| CTTGGCAATGGTGCTGAAGG (e[5mC]*eT*eT*eG*eG*d[5mC]*dA*dA*dT*dG*dG*dT*dG*d[5mC]*dT*eG*eA*eA*eG*eG; antisense) [ISIS 194847] | 66 |
| GATAGCCTCACTTCAGGTGG (eG*eA*eT*eA*eG*d[5mC]*d[5mC]*dT*d[5mC]*dA*d[5mC]*dT*dT*d[5mC]*dA*eG*eG*eT*eG*eG; antisense) [ISIS 194836] | 58 |
| GATGAACCCCAAATCATCCT (eG*eA*eT*eG*eA*dA*d[5mC]*d[5mC]*d[5mC]*d[5mC]*dA*dA*dA*dT*d[5mC]*eA*eT*e[5mC]*e[5mC]*eT; antisense) [ISIS 194827] | 55 |

| Sequence | % Inhib [%] |
| --- | --- |
| GCTGACTGTCCTTTCTCCTG (eG*e[5mC]*eT*eG*eA*d[5mC]*dT*dG*dT*d[5mC]*d[5mC]*dT*dT*dT*d[5mC]*eT*e[5mC]*e[5mC]*eT*eG; antisense) [ISIS 194859] | 62 |
| GCTGCGCCAGCTGTAGCTCT (eG*e[5mC]*eT*eG*e[5mC]*dG*d[5mC]*d[5mC]*dA*dG*d[5mC]*dT*dG*dT*dA*eG*e[5mC]*eT*e[5mC]*eT; antisense) [ISIS 194843] | 66 |
| GGACTCTCTTCACTCAGCCT (eG*eG*eA*e[5mC]*eT*d[5mC]*dT*d[5mC]*dT*dT*d[5mC]*dA*d[5mC]*dT*d[5mC]*eA*eG*e[5mC]*e[5mC]*eT; antisense) [ISIS 194825] | 73 |
| GGTGCGGATGTTTCGTAGGA (eG*eG*eT*eG*e[5mC]*dG*dG*dA*dT*dG*dT*dT*dT*d[5mC]*dG*eT*eA*eG*eG*eA; antisense) [ISIS 194826] | 76 |
| GGTTGCCAGGATAGGGCCCA (eG*eG*eT*eT*eG*d[5mC]*d[5mC]*dA*dG*dG*dA*dT*dA*dG*dG*eG*e[5mC]*e[5mC]*e[5mC]*eA; antisense) [ISIS 194846] | 70 |
| GTCAAGGGTCATTAGTGCCC (eG*eT*e[5mC]*eA*eA*dG*dG*dG*dT*d[5mC]*dA*dT*dT*dA*dG*eT*eG*e[5mC]*e[5mC]*e[5mC]; antisense) [ISIS 194854] | 80 |
| TAACCAGTGGAGAGCACCCA (eT*eA*eA*e[5mC]*e[5mC]*dA*dG*dT*dG*dG*dA*dG*dA*dG*d[5mC]*eA*e[5mC]*e[5mC]*e[5mC]*eA; antisense) [ISIS 194833] | 60 |
| TAGTGGTACAGTGAGAATGA (eT*eA*eG*eT*eG*dG*dT*dA*d[5mC]*dA*dG*dT*dG*dA*dG*eA*eA*eT*eG*eA; antisense) [ISIS 194848] | 81 |
| TCCTTGTCCAAAGGGATCTC (eT*e[5mC]*e[5mC]*eT*eT*dG*dT*d[5mC]*d[5mC]*dA*dA*dA*dG*dG*dG*eA*eT*e[5mC]*eT*e[5mC]; antisense) [ISIS 194842] | 57 |
| TCTCTTCCACCAATGATGGC (eT*e[5mC]*eT*e[5mC]*eT*dT*d[5mC]*d[5mC]*dA*d[5mC]*d[5mC]*dA*dA*dT*dG*eA*eT*eG*eG*e[5mC]; antisense) [ISIS 194841] | 41 |
| TGACTGTCCTTTCTCCTGGA (eT*eG*eA*e[5mC]*eT*dG*dT*d[5mC]*d[5mC]*dT*dT*dT*d[5mC]*dT*d[5mC]*e[5mC]*eT*eG*eG*eA; antisense) [ISIS 194834] | 71 |
| TGCCTACAAGGCCCCCAACT (eT*eG*e[5mC]*e[5mC]*eT*dA*d[5mC]*dA*dA*dG*dG*d[5mC]*d[5mC]*d[5mC]*d[5mC]*e[5mC]*eA*eA*e[5mC]*eT; antisense) [ISIS 194849] | 65 |
| TGCGCCTAGTGGTACAGTGA (eT*eG*e[5mC]*eG*e[5mC]*d[5mC]*dT*dA*dG*dT*dG*dG*dT*dA*d[5mC]*eA*eG*eT*eG*eA; antisense) [ISIS 194829] | 82 |
| TGTCCTTTCTCCTGGATAAG (eT*eG*eT*e[5mC]*e[5mC]*dT*dT*dT*d[5mC]*dT*d[5mC]*d[5mC]*dT*dG*dG*eA*eT*eA*eA*eG; antisense) [ISIS 194852] | 44 |
| TGTTTCGTAGGAGGAAGAAG (eT*eG*eT*eT*eT*d[5mC]*dG*dT*dA*dG*dG*dA*dG*dG*dA*eA*eG*eA*eA*eG; antisense) [ISIS 194857] | 44 |
| TTCCTGCTTGCCGCTCTCAC (eT*eT*e[5mC]*e[5mC]*eT*dG*d[5mC]*dT*dT*dG*d[5mC]*d[5mC]*dG*d[5mC]*dT*e[5mC]*eT*e[5mC]*eA*e[5mC]; antisense) [ISIS 194845] | 50 |
